# From patent publication US20220361493A1, “HERBICIDE COMPOSITION” (UPL CORPORATION LIMITED, priority 2019, published 2022)
# Columns and labels:
# Assay in all cases: Herbicidal efficacy, % weed control
# Format in all cases: in vivo
# [1] = tested on: Cenchrus echinatus; conditions: 35 days after administration
# Text: (§1) This effectiveness of all treatments can be evaluated according to Colby's equation. In the Colby's equation given below, E is the expected efficacy of combination of Propisochlor and another herbicide, X is the observed efficacy of Propisochlor and Y is the observed efficacy of other herbicide. Observed efficacy values i.e. X and Y are % weed control for Propisochlor and another herbicide. If observed efficacy of combination of Propisochlor and other herbicide is greater than its expected efficacy, then combination is determined to be synergistic. If observed efficacy is equal to or less than expected efficacy, then combination is determined to be non-synergistic.
# (§2) Experiments were carried out to evaluate the efficacy of combinations of present invention.
# (§3) Herbicidal activity of synergistic mixtures of the combinations of present invention is represented in below tables.
# [2] = tested on: Brachiaria decumbens; conditions: 35 days after administration
# Text: as §1, §2, §3
# [3] = tested on: Commelina benghalensis; conditions: 35 days after administration
# Text: as §1, §2, §3
# [4] = tested on: Ipomoea grandifolia
# Text: as §1, §2, §3
# [5] = tested on: Brachiaria plantaginea; conditions: 35 days after administration, Table 1
# Text: as §1, §2, §3
# [6] = tested on: Eleusine indica; conditions: 35 days after administration, Table 2
# Text: as §1, §2, §3
# [7] = tested on: Ipomoea hederifolia; conditions: 35 days after administration, Table 2
# Text: as §1, §2, §3
# [8] = tested on: Spermacoce verticillata; conditions: 35 days after administration, Table 2
# Text: as §1, §2, §3
smiles,measurement,setting,value
CCSC(C)CC1CC(=O)C(/C(CC)=N/OC/C=C/Cl)=C(O)C1 (stereo not drawn) [Clethodim],% Weed control Cenchrus echinatus,"[1]; 120 g ai/ha, Table 4",0.0%
CN(C)C(=O)Nc1ccc(Cl)c(Cl)c1 [Diuron],% Weed control Brachiaria decumbens,"[2]; 1000 g ai/ha, Table 9",3.8%
same,% Weed control Brachiaria decumbens,"[2]; 2000 g ai/ha, Table 9",12.5%
same,% Weed control Cenchrus echinatus,"[1]; 1000 g ai/ha, Table 9",5.0%
same,% Weed control Cenchrus echinatus,"[1]; 2000 g ai/ha, Table 9",1.3%
same,% Weed control Commelina benghalensis,"[3]; 500 g ai/ha, Table 8",0%
same,% Weed control Ipomoea grandifolia,"[4]; 500 g ai/ha, 21 days after administration, Table 7",0.0%
same,% Weed control Ipomoea grandifolia,"[4]; 1000 g ai/ha, 35 days after administration, Table 9",0.0%
same,% Weed control Ipomoea grandifolia,"[4]; 2000 g ai/ha, 35 days after administration, Table 9",0.0%
C#CCN1C(=O)COc2cc(F)c(N3C(=O)C4=C(CCCC4)C3=O)cc21 [Flumioxazin],% Weed control Brachiaria decumbens,"[2]; 50 g ai/ha, Table 1",63.75%
same,% Weed control Brachiaria plantaginea,[5]; 50 g ai/ha,53.75%
same,% Weed control Commelina benghalensis,"[3]; 50 g ai/ha, Table 1",90.25%
COC(=O)[C@@H](C)Oc1ccc(Oc2ncc(C(F)(F)F)cc2Cl)cc1 [Haloxyfop-p-methyl],% Weed control Brachiaria decumbens,"[2]; 62.1 g ai/ha, Table 3",11.3%
CN(C)c1nc(=O)n(C2CCCCC2)c(=O)n1C [Hexazinone],% Weed control Brachiaria decumbens,"[2]; 125 g ai/ha, Table 6",11.3%
same,% Weed control Commelina benghalensis,"[3]; 125 g ai/ha, Table 6",45.0%
CCc1cccc(C)c1N(COC(C)C)C(=O)CCl [Propisochlor],% Weed control Brachiaria decumbens,"[2]; 540 g ai/ha, Table 9",68.8%
same,% Weed control Brachiaria decumbens,"[2]; 1080 g ai/ha, Table 3",92.0%
same,% Weed control Brachiaria decumbens,"[2]; 1080 g ai/ha, Table 6",75.0%
same,% Weed control Brachiaria decumbens,"[2]; 1200 g ai/ha, Table 1",85.75%
same,% Weed control Brachiaria plantaginea,[5]; 1200 g ai/ha,84.50%
same,% Weed control Cenchrus echinatus,"[1]; 540 g ai/ha, Table 4",71.3%
same,% Weed control Cenchrus echinatus,"[1]; 540 g ai/ha, Table 5",71.3%
same,% Weed control Cenchrus echinatus,"[1]; 540 g ai/ha, Table 9",91.8%
same,% Weed control Cenchrus echinatus,"[1]; 1080 g ai/ha, Table 4",88.8%
same,% Weed control Cenchrus echinatus,"[1]; 1080 g ai/ha, Table 5",88.8%
same,% Weed control Commelina benghalensis,"[3]; 1080 g ai/ha, Table 6",90.8%
same,% Weed control Commelina benghalensis,"[3]; 1080 g ai/ha, Table 8",90.8%
same,% Weed control Commelina benghalensis,"[3]; 1080 g ai/ha, Table 10",90.8%
same,% Weed control Commelina benghalensis,"[3]; 1200 g ai/ha, Table 1",92.00%
same,% Weed control Eleusine indica,[6]; 525 g ai/ha,99.75%
same,% Weed control Eleusine indica,[6]; 675 g ai/ha,100.00%
same,% Weed control Ipomoea grandifolia,"[4]; 540 g ai/ha, 21 days after administration, Table 7",7.5%
same,% Weed control Ipomoea grandifolia,"[4]; 540 g ai/ha, 35 days after administration, Table 9",0.0%
same,% Weed control Ipomoea grandifolia,"[4]; 540 g ai/ha, 35 days after administration, Table 11",53.8%
same,% Weed control Ipomoea grandifolia,"[4]; 1080 g ai/ha, 21 days after administration, Table 7",22.5%
same,% Weed control Ipomoea grandifolia,"[4]; 1080 g ai/ha, 35 days after administration, Table 10",45.0%
same,% Weed control Ipomoea grandifolia,"[4]; 1080 g ai/ha, 35 days after administration, Table 11",55.50%
same,% Weed control Ipomoea hederifolia,[7]; 525 g ai/ha,26.25%
same,% Weed control Ipomoea hederifolia,[7]; 675 g ai/ha,27%
same,% Weed control Spermacoce verticillata,[8]; 525 g ai/ha,92.75%
same,% Weed control Spermacoce verticillata,[8]; 675 g ai/ha,95.75%
CCOC(=O)[C@@H](C)Oc1ccc(Oc2cnc3cc(Cl)ccc3n2)cc1 [Quizalafop-p-ethyl],% Weed control Cenchrus echinatus,"[1]; 87.5 g ai/ha, Table 5",77.5%
Cc1nn(-c2cc(NS(C)(=O)=O)c(Cl)cc2Cl)c(=O)n1C(F)F [Sulfentrazone],% Weed control Eleusine indica,[6]; 75 g ai/ha,90.00%
same,% Weed control Ipomoea hederifolia,[7]; 75 g ai/ha,98.00%
same,% Weed control Spermacoce verticillata,[8]; 75 g ai/ha,92.25%
CNC(=O)N(C)c1nnc(C(C)(C)C)s1 [Tebuthiuron],% Weed control Commelina benghalensis,"[3]; 400 g ai/ha, Table 10",0.0%
same,% Weed control Ipomoea grandifolia,"[4]; 400 g ai/ha, 35 days after administration, Table 10",12.5%
CCCN(CCC)c1c([N+](=O)[O-])cc(C(F)(F)F)cc1[N+](=O)[O-] [Trifluralin],% Weed control Ipomoea grandifolia,"[4]; 300 g ai/ha, 35 days after administration, Table 11",0.0%
